The source of these data is patent US20240131036A1, “COMPOSITIONS AND METHODS OF TREATING CONDITIONS” (priority 2020, published 2024).

pIC50: −log10 of the molar value. Like-named read-outs stand apart in the source and are kept apart here.

The pIC50 is the negative decadic logarithm of the IC50, by convention in mol/L. For orientation: inhibition means the percentage by which the read-out fell short of the control.

For data set [1], the target named is SARS-CoV-2 3CL^Pro (M^pro) (Severe acute respiratory syndrome coronavirus 2 (2019-nCoV) (SARS-CoV-2), UniProt P0DTD1). The data set is described as follows: Enzymatic assay for M^pro (3CL Protease, MBP-tagged assay kit). Type of data set: biochemical. Conditions: for inhibition at 0.2 µM: 2×10^−7 M, read-out: M^pro enzyme inhibition. On the procedure:
FIG. 1.3A and 1.3B illustrate the enzyme inhibition by the selected sterols and secosteroids. […] Min=negative control without any enzyme (0% enzyme activity), Max=positive control with enzyme and substrate (100% enzyme activity). […] The statistical significance of differences was evaluated by one-way ANOVA, *p<0.05, **p<0.01, ***p<0.001, for all conditions relative to the ethanol blank, n=3. FIG. 1.3B illustrates the RdRP enzyme activity inhibition by selected sterols and secosteroids. […] Min=negative control without any enzyme (0% enzyme activity), Max=positive control with enzyme and substrate (100% enzyme activity). The statistical significance of differences was evaluated by one-way ANOVA, *p<0.05, **p<0.01, ***p<0.001, for all conditions relative to the ethanol blank, n=3
The SARS-CoV-2 3CL^Pro (M^pro), MBP-tagged Assay Kit (BPS Biosciences, San Diego, CA, USA) was used to measure 3CL Protease (M^pro) activity for screening and profiling applications. The 3CL inhibitor GC376 was included as a positive control and also used as a standard. The assay was performed according to the protocol provided by the manufacturer with the concentration of compounds tested being 10^−7 M.

In another data set the target is SARS-CoV-2 RdRP (Severe acute respiratory syndrome coronavirus 2 (2019-nCoV) (SARS-CoV-2), UniProt P0DTD1). The data set is described as follows: Enzymatic assay for RdRP (AlphaScreen, BPS Biosciences). The data set is classed as biochemical. As for the experimental part: Min=negative control without any enzyme (0% enzyme activity), Max=positive control with enzyme and substrate (100% enzyme activity). […] The statistical significance of differences was evaluated by one-way ANOVA, *p<0.05, **p<0.01, ***p<0.001, for all conditions relative to the ethanol blank, n=3. […] Min=negative control without any enzyme (0% enzyme activity), Max=positive control with enzyme and substrate (100% enzyme activity). The statistical significance of differences was evaluated by one-way ANOVA, *p<0.05, **p<0.01, ***p<0.001, for all conditions relative to the ethanol blank, n=3
The assay for RdRP activity was outsourced to BPS Biosciences ([…], California, USA) using the following protocol. […] The RdRP reactions were performed in triplicate at 37° C. for 60 min in a 10 μl mixture containing assay buffer, RNA duplex, ATP substrate and enzyme, and the test compound. The reactions were carried out in wells of 384-well Optiplate (PerkinElmer). After enzymatic reactions, 10 μl of anti-Dig Acceptor beads (PerkinElmer, diluted 1:500 with lx detection buffer) were added to the reaction mix. After brief shaking, the plate was incubated for 30 min. […] The values of % activity versus the concentrations of the compound tested were then plotted using non-linear regression analysis of a Sigmoidal dose-response curve generated with the equation Y=B+(T−B)/1+10^((LogEC50−X)×Hill Slope), where Y=percent activity, B=minimum percent activity, T=maximum percent activity, X=logarithm of compound and Hill Slope=slope factor or Hill coefficient. The IC50 value was determined as the concentration causing half-maximal activity.
Background: Bead proximity is the source of the signal in Alpha formats.

The conditions of data set [2]: very high doses (3-60 μg/kg); cited from earlier work.
The test system of a further data set is human epithelial cells. The data set is described as follows: Gene Set Enrichment Analysis (GSEA) of microarray data (GSE117351), antiviral pathways. Type of data set: cell-based. Further details: key: ^..: the effect is absent.
Setting [3] is: read-out: IC50 for inhibition of the enzyme activity of RdRP.
Where [4] appears, read: pathway: Host Interactions with HIV factors.
Setting [5] is: pathway: Host Interactions with Influenza Factors.
[6] abbreviates: pathway: Influenza Viral RNA Transcription & Replication.

For the molecule “(3S,5Z,7E)-9,10-secocholesta-5,7,10(19)-trien-3,25-diol [25(OH)D3, reference compound]”, the “inhibition of M^pro (in words)” value in data set [1] (100 nM) was “significant inhibition”. Besides, the pIC50 at SARS-CoV-2 RdRP (setting [3]) is 5.89. For the same molecule, the “toxicity and calcemic activity” value in data set [2] is “calcemic”.

With `CC(C)[C@@H](O)CC[C@@H](C)[C@H]1CC[C@H]2C3=CC=C4C[C@@H](O)CC[C@@]4(C)[C@@H]3CC[C@]12C` [24(OH)L3, 9β,10α-cholesta-5,7-diene-3β,24-diol], the inhibition at 0.2 µM in data set [1] lay in the range of 10 to 19%. At SARS-CoV-2 RdRP (setting [3]), the pIC50 is 5.60.

For the molecule `C=C1CC[C@H](O)C/C1=C/C=C1\CCC[C@@]2(C)[C@H]1CC[C@@H]2[C@@](C)(O)CCCC(C)C` [20S(OH)D3, (3S,5Z,7E)-9,10-secocholesta-5,7,10(19)-trien-3,20-diol], the pIC50 on SARS-CoV-2 RdRP is 5.59.

As for `CC(C)CCC[C@](C)(O)[C@H]1CC[C@H]2C3=CC=C4C[C@@H](O)CC[C@@]4(C)[C@@H]3CC[C@@]21C` [20S(OH)L3, 9β,10α-cholesta-5,7-diene-3β,20-diol], the pIC50 at SARS-CoV-2 RdRP (setting [3]) is 6.00.

As for `CC(C)CCC[C@](C)(O)[C@H]1CC[C@H]2C3=CC=C4C[C@@H](O)CC[C@]4(C)[C@H]3CC[C@@]21C` [20S(OH)7DHC, Cholesta-5,7-dien-3β,20-diol], in data set [1], the inhibition at 0.2 µM lay within 10 to 19%. In addition, at SARS-CoV-2 RdRP (setting [3]), the pIC50 is 5.33.

`C[C@H](CCCC(C)(C)O)[C@H]1CC[C@H]2C3=CC=C4C[C@@H](O)CC[C@@]4(C)[C@@H]3CC[C@]12C` [25(OH)L3, 9β,10α-cholesta-5,7-diene-3β,25-diol]: the inhibition at 0.2 µM in data set [1] was in the range of 10 to 19%. The pIC50 on SARS-CoV-2 RdRP (setting [3]) is 6.30.

With `C=C1CCC(O)CC1=CC=C1CCCC2(C)C1CCC2C(C)(O)C=CC(C)C(C)C` (stereo not shown) [20(OH)D2, 20-hydroxyvitamin D2], the “toxicity and calcemic activity” value in data set [2] was “not toxic and non-calcemic”.

On to `C=C1/C(=C\C=C2/CCC[C@]3(C)[C@@H]([C@H](C)CCCC(C)(C)O)CC[C@@H]23)C[C@@H](O)C[C@@H]1O` [1,25(OH)2D3, (3S,5Z,7E)-9,10-secocholesta-5,7,10(19)-trien-1,3,25-triol, reference compound], for which the “GSEA Direction” value in the data set with human epithelial cells, with human epithelial cells (setting [4]), in the data set on human epithelial cells (setting [5]) and in the data set on human epithelial cells (setting [6]) was “^” in each case. Moreover, the “GSEA NES (Normalized Enriched Score)” value with human epithelial cells is listed as “^”; with human epithelial cells (pathway: HIV Life Cycle), −2.503; in the data set on human epithelial cells (setting [4]) it was “^”; with human epithelial cells (setting [5]) it was “^”; with human epithelial cells (setting [6]), “^”; with human epithelial cells (pathway: Late Phase of HIV Life Cycle), −2.658. Besides, the “GSEA NES (Normalized Enriched Score)” value in the data set with human epithelial cells (pathway: Viral Messenger RNA Synthesis) is given as −2.405; with human epithelial cells (pathway: Viral mRNA Translation) it was −3.601. In addition, the “toxicity and calcemic activity” value in data set [2] is given as “calcemic”.
